Reference: US20080280862A1, “Methods, compositions, and kits for the treatment of pain” (priority 2007, published 2008)

How the values were obtained:
TNFα = TNFα secretion by human white blood cells stimulated with PMA/ionomycin, synergy score; assay type: cell-based; design: key: S = Σ Idata(Idata−ILoewe) × ln dilution factors; volume over Loewe additivity; conditions: PBMC stimulated with PMA/Ionomycin
Protocol: A 100 μl suspension of diluted human white blood cells contained within each well of a polystyrene 384-well plate (NalgeNunc) was stimulated to secrete TNFα by treatment with a final concentration of 10 ng/mL phorbol 12-myristate 13-acetate (Sigma, P-1585) and 750 ng/mL ionomycin (Sigma, I-0634). Various concentrations of each test compound were added at the time of stimulation. After 16-18 hours of incubation at 37° C. in a humidified incubator, the plate was centrifuged and the supernatant transferred to a white opaque polystyrene 384-well plate (NalgeNunc, Maxisorb) coated with an anti-TNFα antibody (PharMingen, #551220). After a two-hour incubation, the plate was washed (Tecan PowerWasher 384) with PBS containing 0.1% Tween 20 and incubated for an additional one hour with another anti-TNFα antibody that was biotin labeled (PharMingen, #554511) and HRP coupled to strepavidin (PharMingen, #13047E). After the plate was washed with 0.1% Tween 20/PBS, an HRP-luminescent substrate was added to each well and light intensity measured using a LJL Analyst plate luminometer.
The synergy scores calculated for the various combinations of compounds set forth in Table 3 was calculated by the formula S=log fX log fYΣIdata(Idata−ILoewe), summed over all non-single-agent concentration pairs, and where log fX,Y are the natural logarithm of the dilution factors used for each single agent. This effectively calculates a volume between the measured and Loewe additive response surfaces, weighted towards high inhibition and corrected for varying dilution factors.

[1] = test system: formalin-induced pain model in rats; test: Formalin pain model, nociceptive behaviors; assay type: in vivo, Sprague-Dawley rats; conditions: 20 mg/kg
Protocol: The formalin model is a fast, reliable model used to assess potential analgesics ability to block inflammatory pain. The analgesic effects of test article combinations on pain generation are assayed using the formalin-induced pain model in rats. Adult male Sprague-Dawley rats are administered intraperitoneally study drugs (vehicle, TCA, steroid or TCA/Steroid test article combinations) once daily for 2 days (day −2 and day −1) and 30 minutes prior to the formalin injection day on day 0 (time=0). […] To elicit a pain response, dilute formalin (2% in saline) is injected under the skin of the plantar surface of the right hindpaw. The animal is placed in an observation chamber. The pain response is a characteristic biphasic response pattern of nociceptive behaviors (lifting, licking, and biting of the injected paw). Two distinct periods of nociceptive behaviors/activity are observed and recorded: an early phase (phase I) lasting the first 5-10 min and a late phase (phase II) lasting 20-40 min after the injection of formalin. One hour of data is collected (time spent displaying pain behavior) by a blinded observer using a stopwatch. Results are expressed as the number of pain behaviors per 5 minute periods (Table 8 and Table 9).

[2] = test system: carrageenan-induced pain model in rats; test: Carrageenan pain model, mechanical allodynia by Von Frey filaments; assay type: in vivo, Sprague-Dawley rats; conditions: for Mean change from baseline ± SEM: 25 mg/kg; for mean change from baseline: Table 4, 25 mg/kg ip
Protocol: The carrageenan model is a fast, reliable model used to assess the ability of analgesics to block inflammatory pain. The analgesic effects of test article combinations on pain generation are assayed using the carrageenan-induced pain model in rats. Adult male Sprague-Dawley rats are administered study drugs intraperitoneally (vehicle, tricyclic compound (TCA), steroid or TCA/Steroid test article combinations) once daily for 2 days (day −2 and day −1) and 30 minutes prior to the carrageenan injection on day 0 (time=0). For the carrageenan injection, animals are lightly anesthetized and 0.1 ml of 2% carrageenan is injected into the plantar surface of the right hind paw. The positive control diclofenac at a dose of 25 mg/kg is administered intraperitoneally immediately before the carrageenan injection. Paw volumes (right and left) are measured using a plathysmometer before drug administration on day −2 and serve as a baseline measurement. The paw volumes are measured again two hours post carrageenan injection. The degree of mechanical allodynia is measured by a blinded observer using Von Frey filaments applied to the plantar surface of the hind paws in an increasing numerical order. Each filament increases the force applied on the paw. The filaments are applied until animal paw withdrawal is achieved. This procedure is carried out before drug administration (day −2), on day −1 and on day 0 at time=0, 20, 40, 60, 80 and 120 minutes post-carrageenan. The force (expressed in grams) required for paw withdrawal after carrageenan injection is subtracted from the force required for paw withdrawal before carrageenan injection. Results are expressed as mean change from baseline across five timepoints post carrageenan injection in Table 4.
For a synergy calculation, experimental data from the carrageenan study are fitted to a median-effect model and used to calculate the parameters' median-effect dose (Dm), slope (m), correlation coefficient (r), combination index (CI) and dose-reduction index (DRI). In addition, the probability of pain inhibition occurring after single-component (nortriptyline) versus the combination drug treatments are calculated from the negative change from baseline data using a Bayesian sensitivity analysis. The likelihood of pain inhibition is characterized for nortriptyline administered alone (1 mg/kg or 3 mg/kg) versus the fixed-dose combination treatments [prednisolone (0.3 mg/kg):nortriptyline (1 mg/kg) or prednisolone (1 mg/kg):nortriptyline (3 mg/kg)] each evaluated at 60 and 80 minutes for analgesic effect.
In another example, the effects of test article combinations on pain inhibition were assayed using the carrageenan model in rodents. Desipramine was tested alone and in combination at 0.3, 1, and 3 mg/kg and prednisolone was tested similarly at 0.3, 1 and 3 mg/kg IP.

[3] = combination with Hydrocortisone

Compound: Clc1ccc2c(c1)C(N1CCNCC1)=Nc1ccccc1O2 [Amoxapine]
- Synergy Score based on TNF-α inhibition (TNFα; combination with Betamethasone): 0.68
- Synergy Score based on TNF-α inhibition (TNFα; combination with Budesonide): 0.63
- Synergy Score based on TNF-α inhibition (TNFα; combination with Dexamethasone): 1.3
- Synergy Score based on TNF-α inhibition (TNFα; [3]): 0.56
- Synergy Score based on TNF-α inhibition (TNFα; combination with Prednisolone): 1.1
- Synergy Score based on TNF-α inhibition (TNFα; combination with Triamcinolone): 0.37

Compound: CN(C)CCCN1c2ccccc2CCc2ccccc21 [Imipramine]
- Synergy Score based on TNF-α inhibition (TNFα; combination with Betamethasone): 0.34
- Synergy Score based on TNF-α inhibition (TNFα; combination with Budesonide): 0.88
- Synergy Score based on TNF-α inhibition (TNFα; combination with Diflorasone): 0.43
- Synergy Score based on TNF-α inhibition (TNFα; [3]): 0.82
- Synergy Score based on TNF-α inhibition (TNFα; combination with Prednisolone): 0.61
- Synergy Score based on TNF-α inhibition (TNFα; combination with Triamcinolone): 0.34

Compound: CN1CC[C@]23c4c5ccc(O)c4O[C@H]2[C@@H](O)C=C[C@H]3[C@H]1C5 [Morphine]
- Mean number of behaviors per 5 minute block ([1]; Experiment One, amitriptyline, 5 minutes): 116.0 ± 39.2
- Mean number of behaviors per 5 minute block ([1]; Experiment One, amitriptyline, 10 minutes): 19.0 ± 13.7
- Mean number of behaviors per 5 minute block ([1]; Experiment One, amitriptyline, 15 minutes): 17.0 ± 10.4
- Mean number of behaviors per 5 minute block ([1]; Experiment One, amitriptyline, 20 minutes): 53.0 ± 32.2
- Mean number of behaviors per 5 minute block ([1]; Experiment One, amitriptyline, 25 minutes): 77.0 ± 40.2
- Mean number of behaviors per 5 minute block ([1]; Experiment One, amitriptyline, 30 minutes): 65.0 ± 36.2
- Mean number of behaviors per 5 minute block ([1]; Experiment One, amitriptyline, 35 minutes): 66.0 ± 34.4
- Mean number of behaviors per 5 minute block ([1]; Experiment One, amitriptyline, 40 minutes): 58.0 ± 33.3
- Mean number of behaviors per 5 minute block ([1]; Experiment One, amitriptyline, 45 minutes): 33.0 ± 22.6
- Mean number of behaviors per 5 minute block ([1]; Experiment One, amitriptyline, 50 minutes): 11.0 ± 10.3
- Mean number of behaviors per 5 minute block ([1]; Experiment One, amitriptyline, 55 minutes): 2.0 ± 1.1
- Mean number of behaviors per 5 minute block ([1]; Experiment One, amitriptyline, 60 minutes): 1.0 ± 0.6
- Mean number of behaviors per 5 minute block ([1]; Experiment One, nortriptyline, 5 minutes): 120.0 ± 25.2
- Mean number of behaviors per 5 minute block ([1]; Experiment One, nortriptyline, 10 minutes): 7.0 ± 5.3
- Mean number of behaviors per 5 minute block ([1]; Experiment One, nortriptyline, 15 minutes): 2.0 ± 1.5
- Mean number of behaviors per 5 minute block ([1]; Experiment One, nortriptyline, 20 minutes): 2.0 ± 1.1
- Mean number of behaviors per 5 minute block ([1]; Experiment One, nortriptyline, 25 minutes): 1.0 ± 0.4
- Mean number of behaviors per 5 minute block ([1]; Experiment One, nortriptyline, 30 minutes): 0.0 ± 0.0
- Mean number of behaviors per 5 minute block ([1]; Experiment One, nortriptyline, 35 minutes): 0.0 ± 0.4
- Mean number of behaviors per 5 minute block ([1]; Experiment One, nortriptyline, 40 minutes): 1.0 ± 1.2
- Mean number of behaviors per 5 minute block ([1]; Experiment One, nortriptyline, 45 minutes): 20.0 ± 20.0
- Mean number of behaviors per 5 minute block ([1]; Experiment One, nortriptyline, 50 minutes): 29.0 ± 28.6
- Mean number of behaviors per 5 minute block ([1]; Experiment One, nortriptyline, 55 minutes): 29.0 ± 29.1
- Mean number of behaviors per 5 minute block ([1]; Experiment One, nortriptyline, 60 minutes): 55.0 ± 36.4
- Mean number of behaviors per 5 minute block ([1]; Experiment Two, 5 minutes): 64.0 ± 35.3
- Mean number of behaviors per 5 minute block ([1]; Experiment Two, 10 minutes): 3.0 ± 3.0
- Mean number of behaviors per 5 minute block ([1]; Experiment Two, 15 minutes): 0.0 ± 0.0
- Mean number of behaviors per 5 minute block ([1]; Experiment Two, 20 minutes): 0.0 ± 0.4
- Mean number of behaviors per 5 minute block ([1]; Experiment Two, 25 minutes): 0.0 ± 0.3
- Mean number of behaviors per 5 minute block ([1]; Experiment Two, 30 minutes): 1.0 ± 1.1
- Mean number of behaviors per 5 minute block ([1]; Experiment Two, 35 minutes): 1.0 ± 0.9
- Mean number of behaviors per 5 minute block ([1]; Experiment Two, 40 minutes): 0.0 ± 0.1
- Mean number of behaviors per 5 minute block ([1]; Experiment Two, 45 minutes): 8.0 ± 8.2
- Mean number of behaviors per 5 minute block ([1]; Experiment Two, 50 minutes): 25.0 ± 16.4
- Mean number of behaviors per 5 minute block ([1]; Experiment Two, 55 minutes): 56.0 ± 35.9
- Mean number of behaviors per 5 minute block ([1]; Experiment Two, 60 minutes): 51.0 ± 36.9

Compound: CN(C)CCCN1c2ccccc2CCc2ccc(Cl)cc21 [Clomipramine]
- Synergy Score based on TNF-α inhibition (TNFα; combination with Betamethasone): 0.78
- Synergy Score based on TNF-α inhibition (TNFα; combination with Budesonide): 0.61
- Synergy Score based on TNF-α inhibition (TNFα; combination with Clobetasol): 0.65
- Synergy Score based on TNF-α inhibition (TNFα; combination with Dexamethasone): 1.2
- Synergy Score based on TNF-α inhibition (TNFα; combination with Diflorasone): 0.55
- Synergy Score based on TNF-α inhibition (TNFα; [3]): 0.6
- Synergy Score based on TNF-α inhibition (TNFα; combination with Prednisolone): 0.82
- Synergy Score based on TNF-α inhibition (TNFα; combination with Triamcinolone): 0.5

Compound: O=C(O)Cc1ccccc1Nc1c(Cl)cccc1Cl [Diclofenac]
- Mean AUC ± SEM ([2]; 25 mg/Kg, AUC from 20 minutes through 120 minutes following carrageenan injection): 5332 ± 772.96
- Mean change from baseline ± SEM ([2]; Experiment One, 20 minutes): -17.50 ± 11.24 g
- Mean change from baseline ± SEM ([2]; Experiment One, 40 minutes): -74.70 ± 13.27 g
- Mean change from baseline ± SEM ([2]; Experiment One, 60 minutes): -146.70 ± 16.73 g
- Mean change from baseline ± SEM ([2]; Experiment One, 80 minutes): -203.30 ± 15.02 g
- Mean change from baseline ± SEM ([2]; Experiment One, 120 minutes): -259.90 ± 15.14 g
- Mean change from baseline ± SEM ([2]; Experiment Two, first set of rows, 20 minutes): 5.91 ± 7.99 g
- Mean change from baseline ± SEM ([2]; Experiment Two, first set of rows, 40 minutes): 3.89 ± 5.82 g
- Mean change from baseline ± SEM ([2]; Experiment Two, first set of rows, 60 minutes): 5.94 ± 10.01 g
- Mean change from baseline ± SEM ([2]; Experiment Two, first set of rows, 80 minutes): -2.47 ± 9.56 g
- Mean change from baseline ± SEM ([2]; Experiment Two, first set of rows, 120 minutes): -11.26 ± 8.92 g
- Mean change from baseline ± SEM ([2]; Experiment Two, second set of rows, 20 minutes): -8.50 ± 5.56 g
- Mean change from baseline ± SEM ([2]; Experiment Two, second set of rows, 40 minutes): -12.75 ± 6.22 g
- Mean change from baseline ± SEM ([2]; Experiment Two, second set of rows, 60 minutes): -8.50 ± 8.50 g
- Mean change from baseline ± SEM ([2]; Experiment Two, second set of rows, 80 minutes): -12.75 ± 6.22 g
- Mean change from baseline ± SEM ([2]; Experiment Two, second set of rows, 120 minutes): -17.75 ± 6.74 g
- mean change from baseline ([2]; 20 minutes post carrageenan): −17.50 ± 11.24 grams
- mean change from baseline ([2]; 40 minutes post carrageenan): −74.70 ± 13.27 grams
- mean change from baseline ([2]; 60 minutes post carrageenan): −146.70 ± 16.73 grams
- mean change from baseline ([2]; 80 minutes post carrageenan): −203.30 ± 15.02 grams
- mean change from baseline ([2]; 120 minutes post carrageenan): −259.90 ± 15.14 grams
